Test results as given in patent US4563472A, “Iodoallyl and iodopropargyl substituted tetrazoles and anti-microbial compositions thereof” (Meiji Seika Kaisha, Ltd., priority 1982, dated 1986).
In brackets after ≈: the same amount, converted by molar mass. Like-named read-outs stand apart in the source and are kept apart here.

How the values were obtained:
[1] = test system: Trichophyton interdigitale; experiment: Antifungal Activity (in Medicinal Field), MIC; type: cell-based; details: read-out: Minimal Inhibitory Conc. (MIC)
[2] = test system: Aspergillus fumigatus Saito; experiment: Antifungal Activity (in Medicinal Field), MIC; type: cell-based; details: read-out: Minimal Inhibitory Conc. (MIC)
Candida alubicans GA-24 = experiment: Antifungal Activity (in Medicinal Field), MIC; type: cell-based
[3] = test system: Cryptococcus neoformans Cr-1; experiment: Antifungal Activity (in Medicinal Field), MIC; type: cell-based; details: CR1, read-out: Minimal Inhibitory Conc. (MIC)
[4] = test system: Trichophyton metagrophytes 530324; experiment: Antifungal Activity (in Medicinal Field), MIC; type: cell-based
[5] = test system: Rhizopus nigricans S.N. 32; experiment: Antifungal Activity (in Industrial Field), MIC; type: cell-based; details: Rhizopus stolonifer, read-out: Minimal Inhibitory Conc. (MIC)
[6] = test system: Penicillium luteum ATCC 9644; experiment: Antifungal Activity (in Industrial Field), MIC; type: cell-based; details: Ascospirella lutea, ATCC9644, read-out: Minimal Inhibitory Conc. (MIC)
[7] = test system: Aspergillus flavus ATCC 6275; experiment: Antifungal Activity (in Industrial Field), MIC; type: cell-based; details: ATCC6275, read-out: Minimal Inhibitory Conc. (MIC)
[8] = test system: Trichoderma T-1 ATCC 9645; experiment: Antifungal Activity (in Industrial Field), MIC; type: cell-based; details: ATCC9645, read-out: Minimal Inhibitory Conc. (MIC)
[9] = test system: Cladosporium herbarum IAM F-517; experiment: Antifungal Activity (in Industrial Field), MIC; type: cell-based; details: IAMF517, read-out: Minimal Inhibitory Conc. (MIC)
[10] = test system: Chaetomium globosum ATCC 6205; experiment: Antifungal Activity (in Industrial Field), MIC; type: cell-based; details: ATCC6205, read-out: Minimal Inhibitory Conc. (MIC)
[11] = test system: Aspergillus fumigatus IAM 2621; experiment: Antifungal Activity (in Industrial Field), MIC; type: cell-based; details: IAM2621, read-out: Minimal Inhibitory Conc. (MIC)
[12] = test system: Aspergillus terreus PQMD 82 j; experiment: Antifungal Activity (in Industrial Field), MIC; type: cell-based; details: PQMD82J, read-out: Minimal Inhibitory Conc. (MIC)
Mucor spinescens IAM Mu3 = experiment: Antifungal Activity (in Industrial Field), MIC; type: cell-based; details: IAMMU3, read-out: Minimal Inhibitory Conc. (MIC)
[13] = test system: Pullularia pullulans IAM F-24; experiment: Antifungal Activity (in Industrial Field), MIC; type: cell-based
[14] = test system: Colletotrichum lagenarium; experiment: Antibacterial and Antifungal Activities (in Agricultural Field), MIC; type: cell-based; details: Colletotrichum orbiculare, read-out: Minimal Inhibitory Conc. (MIC)
Botrytis cinerea = experiment: as above; type: cell-based; details: read-out: Minimal Inhibitory Conc. (MIC)
Pellicularia filamentosa = experiment: as above; type: cell-based; details: read-out: Minimal Inhibitory Conc. (MIC)
Glomerella cingulata = experiment: as above; type: cell-based; details: Colletotrichum gloeosporioides, read-out: Minimal Inhibitory Conc. (MIC)
Alternaria kikuchiana = experiment: as above; type: cell-based; details: read-out: Minimal Inhibitory Conc. (MIC)
[15] = test system: Pseudomonas syringae pv. tabaci; experiment: as above; type: cell-based; details: read-out: Minimal Inhibitory Conc. (MIC)
[16] = test system: Xanthomonas campestris pv. oryzae; experiment: microbe, parasite or virus in culture; type: cell-based; details: read-out: Minimal Inhibitory Conc. (MIC)
Diaporithe citri = experiment: Antibacterial and Antifungal Activities (in Agricultural Field), MIC; type: cell-based; details: read-out: Minimal Inhibitory Conc. (MIC)
[17] = test system: Fusarium oxysporum f. lycopersici; experiment: as above; type: cell-based; details: read-out: Minimal Inhibitory Conc. (MIC)
Gibberella fujikuroi = experiment: as above; type: cell-based; details: Fusarium fujikuroi, read-out: Minimal Inhibitory Conc. (MIC)
[18] = test system: Corynebacterium michiganense; experiment: as above; type: cell-based; details: Clavibacter michiganensis; Corynebacterium michiganense; read-out: Minimal Inhibitory Conc. (MIC)
Cochliobolus miyabeanus = experiment: as above; type: cell-based; details: Bipolaris oryzae, read-out: Minimal Inhibitory Conc. (MIC)
Erwinia carotovora = experiment: as above; type: cell-based; details: Pectobacterium carotovorum, read-out: Minimal Inhibitory Conc. (MIC)
Phricularia oryzae = experiment: as above; type: cell-based; details: read-out: Minimal Inhibitory Conc. (MIC)
[19] = test system: Xanthomonas campestris pv. citri; experiment: as above; type: cell-based; details: read-out: Minimal Inhibitory Conc. (MIC)
[20] = test system: Trichophyton mentagrophytes; experiment: Reducing culture positive rate of skin slices from infected guinea pigs; type: in vivo, guinea pigs (White Hartly-strain); design: concentration or dose not given beside the values; details: after 8 days application, non-treated 100
[21] = test system: Trichophyton mentagrophytes; experiment: Therapeutic experiment on trichophytosis in guinea pigs, visual observation; type: in vivo, guinea pigs (White Hartly-strain); details: 1% preparation, 0.25 ml once per day, 8 consecutive days
[22] = GA24, Candida alubicans GA-24, read-out: Minimal Inhibitory Conc. (MIC)
[23] = Trichophyton metagrophytes 530324, read-out: Minimal Inhibitory Conc. (MIC)

SMILES: Cc1nnnn1CC(I)=C(I)I [1-(2',3',3'-triiodoallyl)-5-methyltetrazole]
- MIC [1]: 0.78 µg/mL (≈ 1.55 µM)
- MIC [2]: 0.78 µg/mL (≈ 1.55 µM)
- MIC (Candida alubicans GA-24; [22]): 3.12 µg/mL (≈ 6.22 µM)
- MIC [3]: 6.25 µg/mL (≈ 12.5 µM)
- MIC [4, 23]: 0.78 µg/mL (≈ 1.55 µM)

SMILES: IC#CCn1ncnn1 [2-(1'-iodopropyn-3'-yl)tetrazole]
- MIC [1]: 1.56 µg/mL (≈ 6.67 µM)
- MIC [5]: 6.25 µg/mL (≈ 26.7 µM)
- MIC [2]: 1.56 µg/mL (≈ 6.67 µM)
- MIC (Candida alubicans GA-24; Candida, GA24, read-out: Minimal Inhibitory Conc. (MIC)): 3.12 µg/mL (≈ 13.3 µM)
- MIC [3]: 0.78 µg/mL (≈ 3.33 µM)
- MIC [6]: 3.13 µg/mL (≈ 13.4 µM)
- MIC [7]: 6.25 µg/mL (≈ 26.7 µM)
- MIC [8]: 3.13 µg/mL (≈ 13.4 µM)
- MIC [9]: 3.13 µg/mL (≈ 13.4 µM)
- MIC [10]: 25 µg/mL (≈ 107 µM)
- MIC [11]: 25 µg/mL (≈ 107 µM)
- MIC [12]: 0.78 µg/mL (≈ 3.33 µM)
- MIC (Mucor spinescens IAM Mu3): 3.13 µg/mL (≈ 13.4 µM)
- MIC ([13]; IAMF24, Pullularia pullulans IAM F-24, read-out: Minimal Inhibitory Conc. (MIC)): 6.25 µg/mL (≈ 26.7 µM)
- MIC ([4]; Trichophyton, 530324, read-out: Minimal Inhibitory Conc. (MIC)): 1.56 µg/mL (≈ 6.67 µM)

SMILES: CC(=O)Nc1nnn(CC(I)=C(I)I)n1 [2-(2',3',3'-triiodoallyl)-5-acetylaminotetrazole]
- MIC [1]: 3.12 µg/mL (≈ 5.73 µM)
- MIC [2]: 12.5 µg/mL (≈ 22.9 µM)
- MIC (Candida alubicans GA-24; [22]): 100 µg/mL (≈ 184 µM)
- MIC [3]: 100 µg/mL (≈ 184 µM)
- MIC [4, 23]: 3.12 µg/mL (≈ 5.73 µM)

SMILES: Cc1nnn(CC(I)=C(I)I)n1 [2-(2',3',3'-triiodoallyl)-5-methyltetrazole]
- MIC [1]: 0.19 µg/mL (≈ 0.379 µM)
- MIC [14]: 0.78 µg/mL (≈ 1.55 µM)
- MIC [5]: 1.56 µg/mL (≈ 3.11 µM)
- MIC (Botrytis cinerea): 0.39 µg/mL (≈ 0.777 µM)
- MIC (Pellicularia filamentosa): > 100 µg/mL
- MIC (Glomerella cingulata): 0.39 µg/mL (≈ 0.777 µM)
- MIC (Alternaria kikuchiana): 1.56 µg/mL (≈ 3.11 µM)
- MIC [15]: > 100 µg/mL
- MIC [2]: 0.19 µg/mL (≈ 0.379 µM)
- MIC (Candida alubicans GA-24; [22]): 0.78 µg/mL (≈ 1.55 µM)
- MIC [16]: 6.25 µg/mL (≈ 12.5 µM)
- MIC [3]: 1.56 µg/mL (≈ 3.11 µM)
- MIC (Diaporithe citri): 0.78 µg/mL (≈ 1.55 µM)
- MIC [17]: 3.13 µg/mL (≈ 6.24 µM)
- MIC [6]: 6.25 µg/mL (≈ 12.5 µM)
- MIC [7]: 1.56 µg/mL (≈ 3.11 µM)
- MIC (Gibberella fujikuroi): 0.78 µg/mL (≈ 1.55 µM)
- MIC [8]: 6.25 µg/mL (≈ 12.5 µM)
- MIC [9]: 6.25 µg/mL (≈ 12.5 µM)
- MIC [18]: 25 µg/mL (≈ 49.8 µM)
- MIC [10]: 6.25 µg/mL (≈ 12.5 µM)
- MIC [11]: 1.56 µg/mL (≈ 3.11 µM)
- MIC [12]: 0.39 µg/mL (≈ 0.777 µM)
- MIC (Cochliobolus miyabeanus): 6.25 µg/mL (≈ 12.5 µM)
- MIC (Erwinia carotovora): > 100 µg/mL
- MIC (Phricularia oryzae): 3.13 µg/mL (≈ 6.24 µM)
- MIC (Mucor spinescens IAM Mu3): 1.56 µg/mL (≈ 3.11 µM)
- MIC ([13]; IAMF24, read-out: Minimal Inhibitory Conc. (MIC)): 3.13 µg/mL (≈ 6.24 µM)
- MIC [4, 23]: 0.19 µg/mL (≈ 0.379 µM)
- MIC [19]: 50 µg/mL (≈ 99.6 µM)

SMILES: IC(I)=C(I)Cn1nnc(-c2ccccc2)n1 [2-(2',3',3'-triiodoallyl)-5-phenyltetrazole]
- MIC [1]: 3.12 µg/mL (≈ 5.53 µM)
- MIC [2]: 6.25 µg/mL (≈ 11.1 µM)
- MIC (Candida alubicans GA-24; [22]): 12.5 µg/mL (≈ 22.2 µM)
- MIC [3]: 12.5 µg/mL (≈ 22.2 µM)
- MIC [4, 23]: 1.56 µg/mL (≈ 2.77 µM)

SMILES: Clc1ccccc1C(c1ccccc1)(c1ccccc1)n1ccnc1 [chlotrimazol, 1-(O-chloro-α,α-diphenylbenzyl)imidazole, reference compound]
- Reducing Culture Positive Rate ([20]; 3 days culture): 75%
- Reducing Culture Positive Rate ([20]; 5 days culture): 96%
- Reducing Culture Positive Rate ([20]; 7 days culture): 96%
- Therapeutic Effect: Desquamation [21]: effective
- Therapeutic Effect: Thickening [21]: effective

SMILES: O=[N+]([O-])c1c(Cl)cccc1-c1c[nH]cc1Cl [pyrrolnitrin, 3-chloro-4-(2'-nitro-3'-chlorophenyl)pyrrole, reference compound]
- Reducing Culture Positive Rate ([20]; 3 days culture): 62%
- Reducing Culture Positive Rate ([20]; 5 days culture): 87%
- Reducing Culture Positive Rate ([20]; 7 days culture): 87%
- Therapeutic Effect: Thickening [21]: effective
